Test results published in PubChem BioAssay AID330 (DTP/NCI, 2004).
Several values for one entry are separate records, joined by “and”; a condition that tells them apart may be missing. Equal values may be shown once. Inconclusive results and toxic doses are left out. Rule for the calls: active = survival T/C of 150% or more; inactive = T/C below 125% in these data.

Tested on: P388 leukemia ip, CD2F1 mice, survival T/C
Test: NCI In Vivo Anticancer Drug Screen. Data for tumor model P388 Leukemia (intraperitoneal) in CD2F1 (CDF1) mice
Conditions: endpoint: median survival time, higher = longer survival
Procedure, shortened: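 Mice carrying the transplanted tumor received test compound or vehicle. Survival was recorded in each group, and the value is the treated-group measurement divided by that of the vehicle-treated control group.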

[1] = dose: 60.0 mg/kg/injection, schedule: Q01DX005 (ip), vehicle: saline with Tween-80
[2] = dose: 120.0 mg/kg/injection, schedule: Q01DX005 (ip), vehicle: saline with Tween-80
[3] = dose: 240.0 mg/kg/injection, schedule: Q01DX005 (ip), vehicle: saline with Tween-80
[4] = dose: 60.0 mg/kg/injection, schedule: Q01DX005 (ip), vehicle: saline
[5] = dose: 120.0 mg/kg/injection, schedule: Q01DX005 (ip), vehicle: saline
[6] = dose: 240.0 mg/kg/injection, schedule: Q01DX005 (ip), vehicle: saline
[7] = dose: 50.0 mg/kg/injection, schedule: Q01DX005 (ip), vehicle: Klucel (hydroxypropylcellulose) (HPC)
[8] = dose: 100.0 mg/kg/injection, schedule: Q01DX005 (ip), vehicle: Klucel (hydroxypropylcellulose) (HPC)
[9] = dose: 200.0 mg/kg/injection, schedule: Q01DX005 (ip), vehicle: Klucel (hydroxypropylcellulose) (HPC)
[10] = dose: 50.0 mg/kg/injection, schedule: Q01DX005 (ip), vehicle: saline with Tween-80

Measured: T/C

c1ccc(-c2csc(-c3nc(-c4ccccc4)cs3)n2)cc1
inactive: dose: 25.0 mg/kg/injection, schedule: Q01DX009 (ip), vehicle: Klucel (hydroxypropylcellulose) (HPC) 117 % of control | dose: 50.0 mg/kg/injection, schedule: Q01DX009 (ip), vehicle: Klucel (hydroxypropylcellulose) (HPC) 113 % of control | [1] 99 % of control | dose: 100.0 mg/kg/injection, schedule: Q01DX009 (ip), vehicle: Klucel (hydroxypropylcellulose) (HPC) 118 % of control | [2] 96 % of control | dose: 200.0 mg/kg/injection, schedule: Q01DX009 (ip), vehicle: Klucel (hydroxypropylcellulose) (HPC) 110 % of control | [3] 96 % of control

CN1CCN(Cc2ccccc2)C(C#N)C1 (stereo not drawn)
inactive: dose: 3.13 mg/kg/injection, schedule: Q01DX005 (ip), vehicle: water 100 % of control | dose: 6.25 mg/kg/injection, schedule: Q01DX005 (ip), vehicle: water 95 % of control | dose: 12.5 mg/kg/injection, schedule: Q01DX005 (ip), vehicle: water 93 % of control | dose: 25.0 mg/kg/injection, schedule: Q01DX005 (ip), vehicle: water 100 % of control | dose: 50.0 mg/kg/injection, schedule: Q01DX005 (ip), vehicle: water 105 % of control and 112 % of control | dose: 100.0 mg/kg/injection, schedule: Q01DX005 (ip), vehicle: water 105 % of control

CS(=O)(=O)CC1=NC(=N)N=C1CS(C)(=O)=O
inactive: [4] 100 % of control | [5] 110 % of control | [6] 96 % of control

CCNc1ncc2c(n1)N(CC)C(=O)/C(=C\C(=O)OC)N2
inactive: dose: 37.5 mg/kg/injection, schedule: Q01DX009 (ip), vehicle: saline with Tween-80 94 % of control | dose: 150.0 mg/kg/injection, schedule: Q01DX009 (ip), vehicle: saline with Tween-80 93 % of control

CC(C)(C)C(N)=S=O
inactive: dose: 50.0 mg/kg/injection, schedule: Q01DX005 (ip), vehicle: saline 101 % of control | dose: 100.0 mg/kg/injection, schedule: Q01DX005 (ip), vehicle: saline 106 % of control | dose: 200.0 mg/kg/injection, schedule: Q01DX005 (ip), vehicle: saline 106 % of control

COc1ccc(C(=O)C2C(=O)C(=O)OC2C2OC(=O)C(=O)C2C(=O)c2ccc(OC)cc2)cc1 (stereo not drawn)
inactive: dose: 30.0 mg/kg/injection, schedule: Q01DX005 (ip), vehicle: saline 100 % of control | [4] 94 % of control and 95 % of control | [5] 93 % of control

CCOC(=O)c1csc(/C=C/c2cc(OC)c(OC)c(OC)c2)n1
inactive: [1] 105 % of control | [2] 100 % of control | [3] 92 % of control

CCN(Cc1ccc(CN(CC)C(=O)c2sc3ccccc3c2Cl)cc1)C(=O)c1sc2ccccc2c1Cl
inactive: dose: 50.0 mg/kg/injection, schedule: Q01DX009 (ip), vehicle: saline 101 % of control | dose: 100.0 mg/kg/injection, schedule: Q01DX009 (ip), vehicle: saline 100 % of control | dose: 200.0 mg/kg/injection, schedule: Q01DX009 (ip), vehicle: saline 93 % of control

N#CC1CC2C=CC1C2 (stereo not drawn)
inactive: dose: 5.0 mg/kg/injection, schedule: Q01DX009 (ip), vehicle: saline sonified 109 % of control | dose: 10.0 mg/kg/injection, schedule: Q01DX009 (ip), vehicle: saline sonified 109 % of control | dose: 20.0 mg/kg/injection, schedule: Q01DX009 (ip), vehicle: saline sonified 90 % of control

COc1ccc2c(c1OC)C(=O)OC2C(=O)NCCc1ccc2c(c1)OCO2 (stereo not drawn)
inactive: [7] 92 % of control | [8] 92 % of control | [9] 93 % of control

CCn1c(Cl)c(/C=N/NC(N)=S)c2ccccc21
inactive: dose: 100.0 mg/kg/injection, schedule: Q01DX001 (ip), vehicle: Klucel (hydroxypropylcellulose) (HPC) 97 % of control | dose: 200.0 mg/kg/injection, schedule: Q01DX001 (ip), vehicle: Klucel (hydroxypropylcellulose) (HPC) 91 % of control

O=C(O)c1ccc2c3c(n[se]c13)-c1ccccc1C2=O
inactive: [7] 99 % of control | [8] 103 % of control

COc1ccc(C(C)c2cc(N=NC(N)=O)c(OC)cc2O)cc1 (stereo not drawn)
inactive: dose: 12.5 mg/kg/injection, schedule: Q01DX005 (ip), vehicle: saline with Tween-80 94 % of control | dose: 25.0 mg/kg/injection, schedule: Q01DX005 (ip), vehicle: saline with Tween-80 90 % of control | [10] 90 % of control

CCCn1c(O)c(C(=O)CC)sc1=S
inactive: dose: 60.0 mg/kg/injection, schedule: Q01DX005 (ip), vehicle: Klucel (hydroxypropylcellulose) (HPC) 97 % of control | dose: 120.0 mg/kg/injection, schedule: Q01DX005 (ip), vehicle: Klucel (hydroxypropylcellulose) (HPC) 99 % of control

NC(CC(=O)O)C(F)(F)F (stereo not drawn)
inactive: [1] 99 % of control | [2] 100 % of control | [3] 102 % of control

Cc1c(-c2c(Cl)cccc2Cl)noc1CN(C)C
inactive: [1] 101 % of control | [2] 100 % of control | [3] 92 % of control

O=C1C(=O)c2cccnc2-c2ncccc21
inactive: dose: 1.56 mg/kg/injection, schedule: Q01DX005 (ip), vehicle: Klucel (hydroxypropylcellulose) (HPC) 115 % of control | dose: 3.12 mg/kg/injection, schedule: Q01DX005 (ip), vehicle: Klucel (hydroxypropylcellulose) (HPC) 106 % of control | dose: 6.25 mg/kg/injection, schedule: Q01DX005 (ip), vehicle: Klucel (hydroxypropylcellulose) (HPC) 115 % of control

c1ccc(CNSC(c2ccccc2)(c2ccccc2)c2ccccc2)cc1
inactive: dose: 100.0 mg/kg/injection, schedule: Q04DX002 (ip), vehicle: saline with Tween-80 101 % of control | dose: 200.0 mg/kg/injection, schedule: Q04DX002 (ip), vehicle: saline with Tween-80 102 % of control | dose: 400.0 mg/kg/injection, schedule: Q04DX002 (ip), vehicle: saline with Tween-80 92 % of control

COC1OC(CO)C(N(C)C(C)=O)C1O (stereo not drawn)
inactive: [4] 120 % of control | [5] 115 % of control | [6] 106 % of control

NC1=C(O)C(=O)C(/C=C/c2ccccc2)O1 (stereo not drawn)
inactive: [1] 90 % of control | [2] 90 % of control | [3] 87 % of control

CC(=O)Nc1ccc(N=NN(C)c2ccccc2)cc1
inactive: dose: 50.0 mg/kg/injection, schedule: Q01DX001 (ip), vehicle: saline 104 % of control | dose: 100.0 mg/kg/injection, schedule: Q01DX001 (ip), vehicle: saline 100 % of control

CN1C=CC(C(O)(c2ccccc2)c2ccccc2)CC1 (stereo not drawn)
inactive: [10] 99 % of control | dose: 100.0 mg/kg/injection, schedule: Q01DX005 (ip), vehicle: saline with Tween-80 97 % of control | dose: 200.0 mg/kg/injection, schedule: Q01DX005 (ip), vehicle: saline with Tween-80 100 % of control

Oc1ccccc1-c1cc(-c2ccccc2)nc(NCCCNc2nc(-c3ccccc3)cc(-c3ccccc3O)n2)n1
inactive: [7] 92 % of control | [8] 88 % of control | [9] 86 % of control

CCCOC(=O)/C=C(\Br)C(=O)OCCC
inactive: dose: 6.25 mg/kg/injection, schedule: Q01DX009 (ip), vehicle: saline with Tween-80 113 % of control | dose: 12.5 mg/kg/injection, schedule: Q01DX009 (ip), vehicle: saline with Tween-80 116 % of control and 117 % of control | dose: 25.0 mg/kg/injection, schedule: Q01DX009 (ip), vehicle: saline with Tween-80 103 % of control

O=C(CCCCC(=O)N/N=C\c1ccccn1)N/N=C\c1ccccn1
inactive: dose: 100.0 mg/kg/injection, schedule: Q01DX009 (ip), vehicle: saline with Tween-80 109 % of control | dose: 200.0 mg/kg/injection, schedule: Q01DX009 (ip), vehicle: saline with Tween-80 100 % of control | dose: 400.0 mg/kg/injection, schedule: Q01DX009 (ip), vehicle: saline with Tween-80 109 % of control

CCc1nc(N)nc(N)c1-c1ccc(Cl)c(Cl)c1.[Cl][Pd][Cl]
inactive: dose: 12.5 mg/kg/injection, schedule: Q04DX003 (ip), vehicle: saline with Tween-80 95 % of control
